Source: US6538013B2, “Acyclic and cyclic guanidine-and acetamidine derivatives, their preparation and their use as pesticides, esp. as parasiticides” (Novartis Animal Health US, Inc., priority 1998, dated 2003)

What was measured:
Format in all cases: in vivo
[1] = test system: cat fleas [Ctenocephalides felis (Bouche)]; test: Control of adult fleas in cats by means of pour-on application; details: for action against adult fleas: pour-on on back of neck, 20 mg of active ingredient per kg body weight; for long-term action / long-term activity against adult fleas: evaluated up to day +63
Procedure: Test protocol for each test compound: in order to determine the effectiveness of the test compounds against fully grown fleas, four groups each of two cats are used. Each cat is infested with 100 cat fleas [Ctenocephalides felis (Bouche)] and treated with 20 mg of active ingredient per kg body weight. The treatment is effected by applying the formulation to a locally limited area on the back of the cat's neck. While one group is infested with fleas but is treated only with a placebo, that is to say a formulation without active ingredient, and serves as control, another group is treated with nitenpyram as comparison substance; the two remaining groups receive the test compounds. Evaluation is made in each case by combing surviving fleas out of the animal's coat and comparing the number counted with the number of fleas in the control group and in the group treated with nitenpyram. The procedure in detail is as follows: each cat is infested with 100 fleas immediately after treatment on day 0. On day +1, each animal is combed and the number of surviving fleas is determined; the surviving fleas are then replaced on the same cat and after 24 hours the combing and evaluation are repeated. The fleas still surviving after those 24 hours are not returned to the cat. The described procedure is then repeated on days +3, +7, +9, +14, +21, +28, +35, +42, +49, +56 and +63 and in this way the effectiveness and duration of action are determined. The effectiveness is determined in accordance with the following formula: [formula]

[2] = test system: cat fleas [Ctenocephalides felis (Bouche)]; test: Control of adult fleas in cats by means of subcutaneous injection; details: for action against adult fleas: subcutaneous injection behind left shoulder blade
Procedure: Test protocol for each test compound: in order to determine the effectiveness of the test compounds against fully grown fleas, four groups each of two cats from 1.5 to 4 years of age are used. Each cat is infested with 100 cat fleas [Ctenocephalides felis (Bouche)]. Two groups are treated with 20 mg of active ingredient per kg body weight. The treatment is effected by subcutaneous injection of a solution of the active ingredient behind the left shoulder blade. While one group is infested with fleas but is treated only with a placebo, that is to say a formulation without active ingredient, and serves as control, another group is treated with nitenpyram as comparison substance. Evaluation is made in each case by combing surviving fleas out of the animal's coat and comparing the number counted with the number of fleas in the control group and in the group treated with nitenpyram. The procedure in detail is as follows: each cat is infested with 100 fleas immediately after treatment on day 0. On day +1, each animal is combed and the number of surviving fleas is determined; the surviving fleas are then replaced on the same cat and after 24 hours the combing and evaluation are repeated. The fleas still surviving after those 24 hours are not returned to the cat. The described procedure is then repeated on days +3, +7, +9, +14, +21 and +28 and in this way the effectiveness and duration of action is determined. The effectiveness is determined using the same formula as in the preceding Example.

[3] = test system: dog fleas [Ctenocephalides canis]; test: Control of adult fleas in dogs by means of pour-on application
From the text: In dogs the test proceeds in an entirely analogous manner. In order to investigate the total action and any side-effects after administration in the form of a pour-on formulation, compound No. 1.008 is selected and tested on 11 dogs. The test protocol and the results are given in Example 7.
Test protocol for each test compound: in order to determine the effectiveness of the test compounds against fully grown fleas, three groups each of three dogs (1 male and 2 female beagles) are used; one group consists of two dogs (2 male beagles) and serves as control group. The entire test group consists of 11 beagles between 1 and 3.5 years of age. Each dog is infested with a total of 100 dog fleas [Ctenocephalides canis], 50 male and 50 female. Group 1 is treated with 2 mg, group 2 with 10 mg and group 3 with 20 mg of active ingredient per kg body weight. The treatment is effected by applying the pour-on formulation to a locally limited area on the back of the dog's neck. The fourth group is the control group. The latter is infested with fleas but is treated only with a placebo, that is to say a formulation without active ingredient, and serves for control purposes. Evaluation is made in each case by combing surviving fleas out of the animal's coat and comparing the number counted with the number of fleas in the control group. The procedure in detail is as follows: after treatment with the test formulation (day 0) each dog is infested on each of the subsequent days +1, +7, +14, +23, +28, +35, +49, +56, +63, +70, +77, +84 and +98 with 100 fleas. On the following day, each animal is combed and the number of surviving fleas is determined. The surviving fleas are then replaced on the same dog and after 24 hours the combing and evaluation are repeated. The fleas still surviving after those further 24 hours (2nd day after infestation with 100 fleas) are not returned to the dog. Then on days +3, +7, +9, +14, +21, +28, +35, +42 etc. the described procedure is repeated and in this way the effectiveness and the duration of action are determined. The effectiveness is determined using the formula given in Example 6.

SMILES | action against adult fleas [1] | action against adult fleas ([2]; cats, 20 mg/kg body weight) | further results
CCN(Cc1ccc(Cl)nc1)C(=C[N+](=O)[O-])N(C)C(=O)OCOC(C)=O [Compound 1.001] | Very good action | Very good action | 
CCCCC(=O)OCOC(=O)N(C)C(=C[N+](=O)[O-])N(CC)Cc1ccc(Cl)nc1 [Compound 1.008] | Very good action | Very good action | action (effectiveness) to which it gradually declines after 7 weeks ([1]; pour-on, 20 mg/kg body weight): 26%; long-term action / long-term activity against adult fleas ([1]; pour-on, 20 mg/kg body weight): especially high level of long-term activity; action (effectiveness) against fleas ([3]; dogs (beagles), pour-on, groups 2, 10 and 20 mg/kg (group not stated), 79 days after application): 100%; effectiveness against fleas ([3]; dogs (beagles), pour-on, groups 2, 10 and 20 mg/kg (group not stated), day 86): 98.6%; effectiveness against fleas ([3]; dogs (beagles), pour-on, groups 2, 10 and 20 mg/kg (group not stated), day 98): 92.3%; skin irritation or other undesirable side-effects ([3]; dogs of the three test groups, pour-on 2, 10 and 20 mg/kg body weight): no skin irritation or any other undesirable side-effects
CCCCCCCC(=O)OCOC(=O)N(C)C(=C[N+](=O)[O-])N(CC)Cc1ccc(Cl)nc1 [Compound 1.011] | Very good action | Very good action | action (effectiveness) to which it gradually declines after 7 weeks ([1]; pour-on, 20 mg/kg body weight): 26%; long-term action / long-term activity against adult fleas ([1]; pour-on, 20 mg/kg body weight): especially high level of long-term activity
CCCCCCCCCCCC(=O)OCOC(=O)N(C)C(=C[N+](=O)[O-])N(CC)Cc1ccc(Cl)nc1 [Compound 1.012] | Very good action | Very good action | action (effectiveness) to which it gradually declines after 7 weeks ([1]; pour-on, 20 mg/kg body weight): 26%; long-term action / long-term activity against adult fleas ([1]; pour-on, 20 mg/kg body weight): especially high level of long-term activity; period of full action ([2]; cats, subcutaneous injection, 20 mg/kg body weight): at least 20 days; long-term action / long-term activity against adult fleas ([2]; cats, subcutaneous injection, 20 mg/kg body weight, evaluated up to day +28): especially high level of long-term activity
CCCCCCCCCCCCCC(=O)OCOC(=O)N(C)C(=C[N+](=O)[O-])N(CC)Cc1ccc(Cl)nc1 [Compound 1.013] | Very good action | Very good action | 
CCCCCCCCCCCCCCCC(=O)OCOC(=O)N(C)C(=C[N+](=O)[O-])N(CC)Cc1ccc(Cl)nc1 [Compound 1.014] | Very good action | Very good action | 
CCCCCCCCCCCCCCCCCC(=O)OCOC(=O)N(C)C(=C[N+](=O)[O-])N(CC)Cc1ccc(Cl)nc1 [Compound 1.015] | Very good action | Very good action | 
CCN(Cc1ccc(Cl)nc1)C(=C[N+](=O)[O-])N(C)C(=O)OCOC(=O)c1ccccc1 [Compound 1.018] | Very good action | Very good action | 
CCCCCC(=O)OCOC(=O)N(C)C(=C[N+](=O)[O-])N(CC)Cc1ccc(Cl)nc1 [Compound 1.019] |  |  | long-term action in a further, fully analogous test ([1]; pour-on): long-term action equally as excellent
CCN(Cc1ccc(Cl)nc1)C(=C[N+](=O)[O-])N(C)C(=O)OCOC(=O)c1ccc(C(C)(C)C)cc1 [Compound 1.022] | Very good action | Very good action | 
CCN(Cc1ccc(Cl)nc1)C(=C[N+](=O)[O-])N(C)C(=O)OCOC(=O)C(C)(C)CC [Compound 1.056] |  |  | long-term action in a further, fully analogous test ([1]; pour-on): long-term action equally as excellent
CCCCCCC(=O)OCOC(=O)N(C)C(=C[N+](=O)[O-])N(CC)Cc1ccc(Cl)nc1 [Compound 1.057] |  |  | long-term action in a further, fully analogous test ([1]; pour-on): long-term action equally as excellent
CCCCCCCCCCC(=O)OCOC(=O)N(C)C(=C[N+](=O)[O-])N(CC)Cc1ccc(Cl)nc1 [Compound 1.058] |  |  | long-term action in a further, fully analogous test ([1]; pour-on): long-term action equally as excellent
CCN(Cc1ccc(Cl)nc1)/C(=C\[N+](=O)[O-])NC [nitenpyram, (E)-N-(6-chloro-3-pyridylmethyl)-N-ethyl-N-methyl-2-nitrovinylidenediamine, reference compound] |  |  | period of full action (100% effectiveness) ([1]; pour-on, 20 mg/kg body weight): ≤ 3 weeks; period of full action ([2]; sc, 20 mg/kg): 2 days
